From patent publication US9156790B2, “Anticancer P21-activated kinase inhibitors” (Ohio State Innovation Foundation, priority 2013, dated 2015)
Entries after “also recorded” stand apart in the source; their conditions may differ. Read-outs that look alike come from different tables or passages of the source.

How the values were obtained:
[1] = tested on: PDK1 phosphorylation of Akt (Thr308); assay: Western blot, PDK1 phosphorylation of Akt (Thr308) in thyroid cancer cells; format: cell-based, Human; settings: BCPAP; for PDK1 phosphorylation of Akt (Thr308) (Western blot): 7.5 μM, 6 h, FTC133 and TPC1 cells (FIG. 3); for Dose-dependency of PDK-mediated Akt phosphorylation: dose-response, 6 hours, FTC133 and TPC1 cells (FIG. 4A)
Protocol: Protein isolation and Western blot were performed as previously described. Ringel et al., Cancer research 61:6105-6111 (2001). 25 μg of total cell lysates were loaded into 4-12% SDS-PAGE, electrophoresed, and transferred to nitrocellulose membranes for immunoblotting. Primary antibodies against Akt (#9272), phospho-Akt (Thr308) (#2965), p44/42 MAPK (Erk1/2) (#9107), phospho-p44/42 MAPK (Erk1/2) (Thr202/Tyr204) (#4377) and GAPDH (#2118) were obtained from Cell Signaling Technology (Danvers, Mass., USA). Antibody against Vimentin (V6630) and phospho-Ser55 Vimentin were from Sigma-Aldrich, Inc. (St. Louis, Mo.) and MBL Co. (Nagoya, Japan), respectively. Antibodies against total and phosphorylated S6 were from Cell Signaling Technology®.
The ability of the compounds with in vitro anti-PAK1 activity was assessed for activity […] in thyroid cancer cells. In addition, because the compounds are based on the structure of a PDK1 inhibitor, PDK1 inhibitory activity was also assessed. Inhibitory activity in cells was estimated using Western blot with primary antibodies directed against kinase-specific phosphorylation sites; serine 56 of vimentin for PAK and threonine 308 of Akt for PDK1. BCPAP, TPC1, and FTC133 thyroid cancer cells were utilized. BCPAP and TPC1 are derived from PTC and have BRAF V600E and RET/PTC1 rearrangements, respectively. FTC133 is derived from a follicular thyroid cancer with an inactivating mutation of PTEN. Similar to the kinase screening assay, cells were treated with the six compounds or OSU-03012 at 7.5 μM concentration or with DMSO vehicle alone. The results were not entirely consistent across the three cell lines presumably related to mutation status or other factors. OSU-03012 inhibited both PDK1 and PAK-mediated phosphorylation of targets as predicted.
The dose-dependency of compounds 4 and 15 was next assessed (FIG. 4). […] Due to the important role that ERK activation plays in thyroid cancer, and its signaling activation by thyroid oncogenes, the effects of the compounds on ERK phosphorylation was also assessed.

BCPAP cells = assay: Boyden chamber migration assay, BCPAP; format: cell-based, Human; settings: 2.5 μM and 5.0 μM, 12 hours, P<0.05 versus DMSO
Protocol: Cells were grown in media containing 10% FBS. After 24 hours, the medium was aspirated, and media containing 1% FBS was added for 24 hours. The cells were trypsinized for 2 to 5 minutes, washed, and resuspended in media containing 1% FBS. The cell concentration was calculated by hemocytometer. Four hundred μl 1% FBS medium was added into 24-well plates, and a Boyden chamber (8 μm pore) was inserted into each well. Cells were added to each insert, and were allowed to attach in an incubator at 37° C. at 5% CO2 for 2 hours. The cells were then exposed to various concentrations of drugs or control diluent for 3 hours. The inserts were switched to a new well containing media containing 10% FBS, and the chamber was incubated for 12 or 24 hours depending on the migration rate of the cell line. The cells on and under the Boyden chamber membrane were fixed with 3.7% formaldehyde containing 0.05% crystal violet for 15 min after washing cells with PBS. The chambers were washed with distilled water. […] The Q-tips containing the scraped cells and the Boyden chamber containing the non-migrated cells were separately incubated in 80% methanol, shaken at 500 g for 30 minutes, and the extracted dye was measured at 570 nm. Migration was quantified as the ratio of the migrated cells over the total cells (non-migrated plus […]). […]

JAK2 = JAK2 (Homo sapiens, UniProt O60674); assay: Kinase profiling panel: JAK2; format: biochemical; settings: 5 μM compound; average of triplicate
Protocol: (§1) To further probe the selectivity of the compounds 4 and 15, they were subjected for kinase profiling service for screening against a panel of other kinases selected based on the kinase tree at 5 μM concentration, at or above the IC50 for the two compounds versus PAK in both in vitro and cell-based assays. […] PAK1 was not available for testing using this system thus it was not possible to compare directly in this assay system.

PKBα = PKBα (Homo sapiens, UniProt P31749); assay: Kinase profiling panel: PKBα; format: biochemical; settings: read-out: % activity vs. DMSO, PKBα
Protocol: as §1

MEK1 = MEK1 (Homo sapiens, UniProt Q02750); assay: Kinase profiling panel: MEK1; format: biochemical; settings: 5 μM compound; average of triplicate
Protocol: as §1

p70S6K = p70S6K (Homo sapiens, UniProt P23443); assay: Kinase profiling panel: p70S6K; format: biochemical; settings: 5 μM compound; for % activity vs. DMSO, p70S6K: average of triplicate
Protocol: as §1

ROCK-I = ROCK-I (Homo sapiens, UniProt Q13464); assay: Kinase profiling panel: ROCK-I; format: biochemical; settings: 5 μM compound; average of triplicate
Protocol: as §1

ROCK-II = ROCK-II (Homo sapiens, UniProt O75116); assay: Kinase profiling panel: ROCK-II; format: biochemical; settings: 5 μM compound; average of triplicate
Protocol: as §1

PAK4 = PAK4 (Homo sapiens, UniProt O96013); assay: Kinase profiling panel: PAK4; format: biochemical; settings: 5 μM compound; average of triplicate
Protocol: as §1

other PAK kinases = assay: Kinase profiling panel: other PAK kinases (summary statement); format: biochemical; settings: 5 μM compound
Protocol: as §1

FGFR2 = FGFR2 (Homo sapiens, UniProt P21802); assay: Kinase profiling panel: FGFR2; format: biochemical; settings: 5 μM compound; average of triplicate
Protocol: as §1

FAK = FAK (Homo sapiens, UniProt Q05397); assay: Kinase profiling panel: FAK; format: biochemical; settings: 5 μM compound; average of triplicate
Protocol: as §1

CDK5/p25 = CDK5/p25 (Homo sapiens, UniProt Q00535); assay: Kinase profiling panel: CDK5/p25; format: biochemical; settings: 5 μM compound; average of triplicate
Protocol: as §1

C-RAF = C-RAF (Homo sapiens, UniProt P04049); assay: Kinase profiling panel: C-RAF; format: biochemical; settings: 5 μM compound; average of triplicate
Protocol: as §1

Chain of p70S6K (P23443 whole entry): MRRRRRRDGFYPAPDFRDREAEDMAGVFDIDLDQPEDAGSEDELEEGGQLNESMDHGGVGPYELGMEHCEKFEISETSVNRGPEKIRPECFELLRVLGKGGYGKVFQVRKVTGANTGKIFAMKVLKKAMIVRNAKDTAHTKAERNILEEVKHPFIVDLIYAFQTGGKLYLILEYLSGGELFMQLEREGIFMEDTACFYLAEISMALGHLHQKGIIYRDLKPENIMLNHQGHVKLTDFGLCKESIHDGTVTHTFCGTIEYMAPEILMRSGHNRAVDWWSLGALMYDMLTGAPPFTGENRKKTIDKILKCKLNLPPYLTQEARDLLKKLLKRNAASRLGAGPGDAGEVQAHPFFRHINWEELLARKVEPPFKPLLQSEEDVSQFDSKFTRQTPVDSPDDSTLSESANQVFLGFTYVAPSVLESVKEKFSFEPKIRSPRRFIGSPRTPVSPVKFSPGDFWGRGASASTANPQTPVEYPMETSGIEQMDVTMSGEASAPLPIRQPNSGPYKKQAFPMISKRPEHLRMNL
Chain of PAK4 (O96013 whole entry, species assumed): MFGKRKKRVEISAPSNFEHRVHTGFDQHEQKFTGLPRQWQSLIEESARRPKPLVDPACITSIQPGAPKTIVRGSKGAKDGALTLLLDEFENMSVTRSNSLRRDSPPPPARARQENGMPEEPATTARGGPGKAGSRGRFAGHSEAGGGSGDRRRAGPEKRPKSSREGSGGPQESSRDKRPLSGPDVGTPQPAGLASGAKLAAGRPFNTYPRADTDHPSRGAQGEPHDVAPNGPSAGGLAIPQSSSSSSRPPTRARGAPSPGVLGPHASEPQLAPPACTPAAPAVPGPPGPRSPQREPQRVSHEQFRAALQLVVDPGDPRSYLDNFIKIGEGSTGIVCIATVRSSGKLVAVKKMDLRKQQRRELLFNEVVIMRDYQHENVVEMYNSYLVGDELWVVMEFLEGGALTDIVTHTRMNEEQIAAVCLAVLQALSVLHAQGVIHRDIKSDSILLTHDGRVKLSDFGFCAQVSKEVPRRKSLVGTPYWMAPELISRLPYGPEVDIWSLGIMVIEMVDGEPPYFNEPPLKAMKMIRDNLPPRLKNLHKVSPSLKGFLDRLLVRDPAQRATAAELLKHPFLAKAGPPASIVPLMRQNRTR
Chain of C-RAF (P04049 whole entry, species assumed): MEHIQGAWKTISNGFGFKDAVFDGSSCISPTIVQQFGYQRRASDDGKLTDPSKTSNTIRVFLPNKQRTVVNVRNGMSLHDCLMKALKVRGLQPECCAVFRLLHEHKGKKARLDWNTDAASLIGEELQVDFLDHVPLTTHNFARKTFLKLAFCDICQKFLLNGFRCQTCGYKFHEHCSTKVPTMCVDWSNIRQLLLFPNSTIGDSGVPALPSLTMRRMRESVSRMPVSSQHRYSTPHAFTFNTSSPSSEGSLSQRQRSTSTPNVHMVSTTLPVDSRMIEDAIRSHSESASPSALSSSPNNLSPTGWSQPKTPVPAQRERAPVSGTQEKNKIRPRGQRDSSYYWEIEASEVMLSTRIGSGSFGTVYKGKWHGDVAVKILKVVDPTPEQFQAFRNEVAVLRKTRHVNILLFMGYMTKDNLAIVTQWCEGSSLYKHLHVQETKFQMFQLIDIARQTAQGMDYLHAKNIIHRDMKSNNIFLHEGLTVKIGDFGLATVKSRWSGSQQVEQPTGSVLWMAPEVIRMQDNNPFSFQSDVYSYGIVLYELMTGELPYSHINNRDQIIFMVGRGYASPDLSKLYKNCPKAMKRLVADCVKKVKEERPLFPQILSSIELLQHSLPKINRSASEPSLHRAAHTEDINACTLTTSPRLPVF
Chain of PKBα (P31749 whole entry, species assumed): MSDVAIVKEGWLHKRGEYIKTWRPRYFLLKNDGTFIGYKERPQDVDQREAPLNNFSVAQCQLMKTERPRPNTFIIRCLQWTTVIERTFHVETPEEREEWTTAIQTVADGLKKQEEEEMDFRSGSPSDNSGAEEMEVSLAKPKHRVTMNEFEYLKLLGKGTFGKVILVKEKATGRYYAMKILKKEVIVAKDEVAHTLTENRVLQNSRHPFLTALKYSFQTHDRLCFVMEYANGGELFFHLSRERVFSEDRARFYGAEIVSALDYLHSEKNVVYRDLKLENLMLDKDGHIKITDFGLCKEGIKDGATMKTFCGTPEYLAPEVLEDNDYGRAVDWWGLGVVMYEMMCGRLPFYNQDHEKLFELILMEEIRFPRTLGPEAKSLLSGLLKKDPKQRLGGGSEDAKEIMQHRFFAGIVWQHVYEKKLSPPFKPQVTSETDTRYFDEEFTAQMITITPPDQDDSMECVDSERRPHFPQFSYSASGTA
Chain of FGFR2 (P21802 22-821, species assumed): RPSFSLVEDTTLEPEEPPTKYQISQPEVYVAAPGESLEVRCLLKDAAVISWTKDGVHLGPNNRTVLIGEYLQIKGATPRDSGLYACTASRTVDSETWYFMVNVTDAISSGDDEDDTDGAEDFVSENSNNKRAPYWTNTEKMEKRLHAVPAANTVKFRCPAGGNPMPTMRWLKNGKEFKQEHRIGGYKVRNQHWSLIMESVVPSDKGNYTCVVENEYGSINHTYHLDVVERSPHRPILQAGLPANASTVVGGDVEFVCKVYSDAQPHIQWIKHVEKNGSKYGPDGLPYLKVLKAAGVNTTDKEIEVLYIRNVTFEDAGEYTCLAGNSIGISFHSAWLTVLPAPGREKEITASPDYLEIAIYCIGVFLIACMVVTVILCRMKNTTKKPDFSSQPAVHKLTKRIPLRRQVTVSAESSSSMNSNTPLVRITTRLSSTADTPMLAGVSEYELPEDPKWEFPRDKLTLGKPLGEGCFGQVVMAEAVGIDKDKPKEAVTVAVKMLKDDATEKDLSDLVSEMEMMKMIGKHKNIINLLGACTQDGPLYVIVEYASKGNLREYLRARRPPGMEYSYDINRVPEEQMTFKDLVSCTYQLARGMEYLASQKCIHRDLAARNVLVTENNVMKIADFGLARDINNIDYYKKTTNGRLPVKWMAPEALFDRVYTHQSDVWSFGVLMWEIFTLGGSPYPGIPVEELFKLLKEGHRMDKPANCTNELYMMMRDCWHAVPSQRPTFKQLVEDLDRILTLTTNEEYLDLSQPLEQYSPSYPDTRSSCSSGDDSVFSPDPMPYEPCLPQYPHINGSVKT
Chain of CDK5/p25 (Q00535 whole entry, species assumed): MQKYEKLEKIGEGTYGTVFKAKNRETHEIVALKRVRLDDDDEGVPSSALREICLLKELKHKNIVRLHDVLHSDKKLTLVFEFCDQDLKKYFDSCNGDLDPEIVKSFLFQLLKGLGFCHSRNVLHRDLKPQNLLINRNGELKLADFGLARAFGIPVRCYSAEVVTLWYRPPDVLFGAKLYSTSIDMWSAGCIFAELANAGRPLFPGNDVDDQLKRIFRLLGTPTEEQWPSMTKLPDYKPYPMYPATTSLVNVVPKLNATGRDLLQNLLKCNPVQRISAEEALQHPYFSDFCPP
Chain of CDK5/p25 (Q15078 99-307 partner limits assumed, species assumed): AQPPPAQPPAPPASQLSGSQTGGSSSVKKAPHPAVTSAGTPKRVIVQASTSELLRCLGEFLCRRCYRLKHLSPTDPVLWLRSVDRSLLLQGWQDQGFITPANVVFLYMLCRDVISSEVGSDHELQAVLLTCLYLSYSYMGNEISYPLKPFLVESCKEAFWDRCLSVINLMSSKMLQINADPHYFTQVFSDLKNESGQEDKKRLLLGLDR
Chain of FAK (Q05397 whole entry, species assumed): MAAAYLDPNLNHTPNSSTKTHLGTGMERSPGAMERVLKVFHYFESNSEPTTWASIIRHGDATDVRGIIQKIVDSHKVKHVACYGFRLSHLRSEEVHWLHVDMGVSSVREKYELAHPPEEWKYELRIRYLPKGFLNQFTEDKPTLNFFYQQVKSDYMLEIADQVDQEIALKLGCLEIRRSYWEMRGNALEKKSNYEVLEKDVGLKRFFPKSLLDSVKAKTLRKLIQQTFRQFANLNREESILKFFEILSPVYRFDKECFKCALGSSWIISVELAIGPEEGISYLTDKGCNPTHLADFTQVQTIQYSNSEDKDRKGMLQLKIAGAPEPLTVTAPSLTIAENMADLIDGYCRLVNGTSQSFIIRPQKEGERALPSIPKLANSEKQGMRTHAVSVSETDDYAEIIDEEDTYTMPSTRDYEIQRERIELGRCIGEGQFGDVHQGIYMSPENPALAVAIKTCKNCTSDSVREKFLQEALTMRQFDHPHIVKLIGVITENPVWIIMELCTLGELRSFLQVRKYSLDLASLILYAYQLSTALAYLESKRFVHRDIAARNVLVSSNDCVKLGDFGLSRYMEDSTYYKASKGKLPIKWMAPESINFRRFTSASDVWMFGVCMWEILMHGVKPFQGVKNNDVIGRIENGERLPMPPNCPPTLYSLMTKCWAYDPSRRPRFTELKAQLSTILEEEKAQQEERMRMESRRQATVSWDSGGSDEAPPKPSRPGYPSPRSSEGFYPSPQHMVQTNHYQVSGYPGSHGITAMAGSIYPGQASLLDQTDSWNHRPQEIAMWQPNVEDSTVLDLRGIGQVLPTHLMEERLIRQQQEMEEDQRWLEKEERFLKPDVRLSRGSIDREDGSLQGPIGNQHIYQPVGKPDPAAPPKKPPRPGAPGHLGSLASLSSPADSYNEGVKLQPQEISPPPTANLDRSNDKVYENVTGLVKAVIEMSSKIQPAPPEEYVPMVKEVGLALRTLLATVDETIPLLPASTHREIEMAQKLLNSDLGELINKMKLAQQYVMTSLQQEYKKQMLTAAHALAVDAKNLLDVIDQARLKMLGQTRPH
Chain of MEK1 (Q02750 whole entry, species assumed): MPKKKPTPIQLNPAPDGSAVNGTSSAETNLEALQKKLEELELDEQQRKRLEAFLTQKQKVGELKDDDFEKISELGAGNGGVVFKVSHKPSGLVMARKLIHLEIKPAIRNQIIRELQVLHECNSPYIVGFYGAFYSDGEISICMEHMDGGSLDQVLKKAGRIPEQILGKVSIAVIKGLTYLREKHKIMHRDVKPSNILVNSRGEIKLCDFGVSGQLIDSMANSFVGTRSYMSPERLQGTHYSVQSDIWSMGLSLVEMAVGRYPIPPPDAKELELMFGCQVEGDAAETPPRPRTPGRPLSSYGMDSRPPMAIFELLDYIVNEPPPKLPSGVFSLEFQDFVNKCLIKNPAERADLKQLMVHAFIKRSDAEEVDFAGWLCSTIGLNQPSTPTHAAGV

| SMILES | PDK1 phosphorylation of Akt (Thr308) (Western blot) [1] | Dose-dependency of PDK-mediated Akt phosphorylation [1] | Migration of BCPAP cells (BCPAP cells) | % activity vs. DMSO, JAK2 (JAK2) [%] | remaining activity at 5 µM (PKBα; 5 μM compound, average of triplicate) [%] | % activity vs. DMSO, MEK1 (MEK1) [%] | inhibition at 5 µM (p70S6K) [%] | % activity vs. DMSO, p70S6K (p70S6K) [%] | % activity vs. DMSO, ROCK-I (ROCK-I) [%] | % activity vs. DMSO, ROCK-II (ROCK-II) [%] | % activity vs. DMSO, PAK4 (PAK4) [%] | Activity versus other PAK kinases (other PAK kinases) | % activity vs. DMSO, FGFR2 (FGFR2) [%] | % activity vs. DMSO, FAK (FAK) [%] | % activity vs. DMSO, CDK5/p25 (CDK5/p25) [%] | % activity vs. DMSO, C-RAF (C-RAF) [%] | remaining activity at 5 µM (PKBα) [%] |
| --- | --- | --- | --- | --- | --- | --- | --- | --- | --- | --- | --- | --- | --- | --- | --- | --- | --- |
| NCCC(=O)Nc1ccc(-n2nc(C(F)(F)F)cc2-c2ccc3ccc4ccccc4c3c2)cc1 [Compound 4, 3-amino-N-(4-(5-(phenanthren-3-yl)-3-(trifluoromethyl)-1H-pyrazol-1-yl)phenyl)-propanamide] | without altering PDK1 activity; also recorded: did not block PDK1-mediated Akt phosphorylation | not reduced | inhibited migration | 152 | 103 | 106 | > 50 | 28 | 93 | 79 | 101 | did not have activity versus other PAK kinases | 92 | 87 | 113 | 104 |  |
| CC(C)NC(=O)c1cc(-c2ccc3ccc4ccccc4c3c2)n(-c2ccc(NC(=O)CN)cc2)n1 [Compound 15, 1-(4-(2-Aminoacetamido)phenyl)-N-isopropyl-5-(phenanthren-3-yl)-1H-pyrazole-3-carboxamide] | without altering PDK1 activity; also recorded: did not block PDK1-mediated Akt phosphorylation | not reduced | inhibited migration | 139 |  | 101 | > 50 | 38 | 95 | 96 | 105 | did not have activity versus other PAK kinases | 99 | 96 | 93 | 108 | 99 |
